Data published in PubChem BioAssay AID248 (DTP/NCI, 2004).
Inconclusive results and toxic doses are left out. No stated cut-off is given here; in the data, active means T/C of 150% or more; inactive means T/C below 125%.

Test system: L1210 leukemia ip in BDF1 mice, survival T/C
Test: NCI In Vivo Anticancer Drug Screen. Data for tumor model L1210 Leukemia (intraperitoneal) in B6D2F1 (BDF1) mice
Details: endpoint: mean survival time, vehicle: saline with Tween-80, higher = longer survival
Procedure, shortened: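 Tumor was transplanted into mice, which were then dosed with test compound or vehicle alone. Survival was recorded for each group, and the treated figure was expressed relative to the control figure.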

Measured: T/C

CCNC(C)(C)C(=O)c1ccc(Cl)s1
inactive: dose: 100.0 mg/kg/injection, schedule: Q01DX009 (ip) 96 % of control | dose: 100.0 mg/kg/injection, schedule: Q04DX003 (ip) 100 % of control | dose: 200.0 mg/kg/injection, schedule: Q01DX009 (ip) 96 % of control | dose: 200.0 mg/kg/injection, schedule: Q04DX003 (ip) 100 % of control | dose: 400.0 mg/kg/injection, schedule: Q04DX003 (ip) 98 % of control
